We go through eight molecules from PubChem BioAssay (NCI).

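The compound was tested at five concentrations on cells cultured in 96-well plates, with a 48-hour exposure period. GI50 marks 50% less growth. TGI is the concentration that stops growth completely.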

Among the test systems are HCC-2998 colon; HL-60(TB) leukemia; LOX IMVI melanoma; OVCAR-3 ovarian; OVCAR-5 ovarian; OVCAR-8 ovarian; SN12C renal; T-47D breast; U251 CNS; UO-31 renal.
Holding throughout (assay): growth of human tumour cells (NCI), 48 h

With `O=C(Nc1cccc(Nc2ncc(Br)c(NCCc3cnc[nH]3)n2)c1)N1CCCC1`, the GI50 was 9.11 µM in the assay with HCC-2998 colon; 3.47 µM in the assay on HL-60(TB) leukemia; 1.11 µM in the assay on LOX IMVI melanoma; 4.62 µM in the assay with OVCAR-3 ovarian; 9.29 µM in the assay on OVCAR-5 ovarian; 8.44 µM in the assay on OVCAR-8 ovarian. The GI50 in the assay on SN12C renal was 2.88 µM; in the assay on T-47D breast, 4.43 µM; with U251 CNS it was 5.22 µM; in the assay with UO-31 renal, 13.4 µM. Besides, the TGI with HCC-2998 colon was 24.3 µM; in the assay on HL-60(TB) leukemia, 24.2 µM; with LOX IMVI melanoma, 7.4 µM; in the assay with OVCAR-3 ovarian, 24.3 µM; with OVCAR-5 ovarian, 73.1 µM; with OVCAR-8 ovarian, 24.8 µM. The TGI is 33.6 µM in the assay with SN12C renal, 25.5 µM with T-47D breast, 45.8 µM in the assay on U251 CNS and 45.8 µM in the assay on UO-31 renal.

For `CN(CC(N)=O)C(=O)N(CCCl)N=O`, the TGI with HCC-2998 colon, in the assay with HL-60(TB) leukemia, in the assay with LOX IMVI melanoma, in the assay on OVCAR-3 ovarian, with OVCAR-5 ovarian and with OVCAR-8 ovarian was greater than 100 µM in each case. Also, the TGI in the assay on SN12C renal, in the assay on T-47D breast, with U251 CNS and in the assay with UO-31 renal was greater than 100 µM in each case.

In the case of `COc1ccc(OC)c(Cn2cc3c(c2)-c2oncc2CC3)c1`, the GI50 is 4.72 µM in the assay on HCC-2998 colon; 1.65 µM in the assay with HL-60(TB) leukemia; 4.06 µM with LOX IMVI melanoma; 2.29 µM with OVCAR-3 ovarian; 6.08 µM in the assay with OVCAR-5 ovarian; 5.27 µM with OVCAR-8 ovarian. Besides, the GI50 in the assay with SN12C renal was 5.97 µM; in the assay with T-47D breast it was 7.1 µM; with U251 CNS, 3.54 µM; with UO-31 renal, 4.13 µM. Further, the TGI in the assay with HCC-2998 colon was 38.1 µM; in the assay with HL-60(TB) leukemia, 6.74 µM; with LOX IMVI melanoma it was greater than 100 µM; in the assay with OVCAR-3 ovarian, 5.98 µM; in the assay with OVCAR-5 ovarian, greater than 100 µM; with OVCAR-8 ovarian it was greater than 100 µM. The TGI was greater than 100 µM in the assay with SN12C renal, greater than 100 µM in the assay with T-47D breast, greater than 100 µM in the assay on U251 CNS and 38.8 µM with UO-31 renal.

`O=C1NC(=O)C(c2cccc(Cl)c2)=C1Nc1ccc(O)c(Cl)c1`: the GI50 is 24.6 µM with HCC-2998 colon; 8.75 µM with HL-60(TB) leukemia; 8.85 µM in the assay on LOX IMVI melanoma; 7.86 µM with OVCAR-3 ovarian; 22.4 µM in the assay with OVCAR-5 ovarian; 14 µM with OVCAR-8 ovarian. The GI50 in the assay on SN12C renal was 9.42 µM; in the assay with T-47D breast, 7.98 µM; with U251 CNS, 12.5 µM; in the assay on UO-31 renal, 7.93 µM. In addition, the TGI in the assay with HCC-2998 colon is greater than 25 µM; with HL-60(TB) leukemia it was greater than 25 µM; in the assay with LOX IMVI melanoma, greater than 25 µM; with OVCAR-3 ovarian it was greater than 21.9 µM; in the assay with OVCAR-5 ovarian, greater than 25 µM; in the assay on OVCAR-8 ovarian it was greater than 25 µM. Also, the TGI in the assay with SN12C renal was greater than 25 µM; in the assay with T-47D breast, greater than 23.1 µM; with U251 CNS, greater than 25 µM; with UO-31 renal it was greater than 25 µM.

As to `CC(C)=CCC/C(C)=C/CC/C(C)=C/CC/C=C(\C)CC/C=C(\C)CCC(=O)Nc1ccn(C2OC(CO)C(O)C2(F)F)c(=O)n1` (centres undefined), the GI50 in the assay on HCC-2998 colon is 0.9 µM; in the assay on HL-60(TB) leukemia, 0.0618 µM; with LOX IMVI melanoma, 0.347 µM; in the assay on OVCAR-5 ovarian, 1.21 µM; in the assay on OVCAR-8 ovarian, 0.0652 µM; in the assay with SN12C renal it was 0.326 µM. Also, the GI50 in the assay with T-47D breast is 0.089 µM; in the assay with U251 CNS, 0.0884 µM; in the assay on UO-31 renal it was 0.0501 µM. The TGI with HCC-2998 colon was 23 µM; in the assay with HL-60(TB) leukemia, 0.539 µM; with LOX IMVI melanoma it was 14.5 µM; with OVCAR-3 ovarian, 4.48 µM; with OVCAR-5 ovarian, 26.3 µM; with OVCAR-8 ovarian, greater than 100 µM. For the same molecule, the TGI with SN12C renal is 13.1 µM; in the assay with T-47D breast it was 11.8 µM; with U251 CNS it was 16.1 µM; in the assay on UO-31 renal, 14.7 µM.

For `CN(C)CC1CCCC1=O` (centres undefined), the TGI was 4.44 µM with HCC-2998 colon; 0.374 µM with HL-60(TB) leukemia; 4 µM with LOX IMVI melanoma; 2.91 µM in the assay on OVCAR-3 ovarian; 12.5 µM in the assay on OVCAR-5 ovarian; 8.94 µM in the assay with OVCAR-8 ovarian. Besides, the TGI in the assay with SN12C renal is 2.85 µM; in the assay with T-47D breast, 15.2 µM; in the assay with U251 CNS, 14.9 µM; with UO-31 renal, 22.9 µM.

Consider `CCn1c2ccccc2c2cc(/C=C(/C#N)C(N)=O)ccc21`, for which the GI50 with HCC-2998 colon is 4.22 µM; in the assay on HL-60(TB) leukemia it was 4.76 µM; in the assay on LOX IMVI melanoma, 14.4 µM; in the assay with OVCAR-3 ovarian, 3.43 µM; in the assay with OVCAR-5 ovarian it was 0.668 µM; with OVCAR-8 ovarian, 42.6 µM. The GI50 with SN12C renal is 43.6 µM; with T-47D breast it was 3.33 µM; with U251 CNS, 5.45 µM; with UO-31 renal it was 11.7 µM. In addition, the TGI with HCC-2998 colon is 25.3 µM; in the assay on HL-60(TB) leukemia, greater than 67.3 µM; in the assay with LOX IMVI melanoma it was greater than 100 µM; in the assay on OVCAR-3 ovarian, 19.1 µM; in the assay with OVCAR-5 ovarian it was 3.95 µM; with OVCAR-8 ovarian, greater than 100 µM. Moreover, the TGI in the assay on SN12C renal was greater than 100 µM; in the assay with T-47D breast it was greater than 100 µM; in the assay with U251 CNS, greater than 100 µM; with UO-31 renal, greater than 29.6 µM.

For `COc1ccc2cc(-c3c(-c4ccncc4)nc(-c4ccc(S(C)=O)cc4)n3C)ccc2c1` (centres undefined), the GI50 in the assay on HCC-2998 colon was 25 µM; in the assay with HL-60(TB) leukemia it was 18.3 µM; in the assay on LOX IMVI melanoma it was greater than 23.4 µM; in the assay on OVCAR-3 ovarian it was 15.3 µM; with OVCAR-5 ovarian it was greater than 25 µM; with OVCAR-8 ovarian, 17.9 µM. The GI50 in the assay on SN12C renal was 18 µM; with T-47D breast, 7.92 µM; with U251 CNS it was greater than 25 µM; with UO-31 renal, 6.42 µM. Besides, the TGI with HCC-2998 colon, in the assay with HL-60(TB) leukemia, with LOX IMVI melanoma, in the assay with OVCAR-3 ovarian, in the assay on OVCAR-5 ovarian and in the assay on OVCAR-8 ovarian was greater than 25 µM each time. For the same molecule, the TGI is greater than 25 µM with SN12C renal, 24.6 µM in the assay on T-47D breast, greater than 25 µM with U251 CNS and greater than 25 µM in the assay with UO-31 renal.
